Measurements from paper PMC11046985 (Neuro-Oncology Advances, 2024).

Experiments:
[1] = design: species or system human; conditions: in vivo
Source text: The opening of a new cohort followed a standard 3 + 3 dose-escalation design and was guided by assessment of all grade toxicities and trends in adverse events seen in subsequent dosing cycles. […] Safety and clinical data were reviewed through day 28 prior to the opening of each cohort level. DLT was defined as any possible drug-related, clinically relevant, grade 3 or 4 non-hematologic toxicity (except alopecia or unmedicated nausea/vomiting), grade 3 nausea, vomiting, or diarrhea of any duration lasting > 24 hours despite standard prophylaxis and/or treatment, grade 4 diarrhea and vomiting of any duration, grade 3 febrile neutropenia (defined as ANC […] with a single temperature of > 38.3° C or a sustained temperature of ≥ 38.3° C for more than 1 hour), grade 4 febrile neutropenia of any duration, grade 4 neutropenia lasting > 7 days (defined as a neutrophil count of < 500/mm^3), grade 4 thrombocytopenia or thrombocytopenia with clinically significant bleeding, grade 4 anemia of any duration, and any clinically significant toxicity that precluded administration of the next scheduled dose beyond 14 days, or dose reduction for any reason. The maximum tolerated dose (MTD) was defined as the highest dose tested in which fewer than 33% of patients experienced a DLT. Review of study data led to expansion of dose cohort 3 while dose cohort 4 was evaluated. Dose cohort 4 was also expanded in the absence of DLTs. The recommended phase II dose was defined as a dose equal to or below the MTD and accounted for any cumulative or delayed toxicity beyond the DLT observation period.
Safety evaluations of hematology and chemistry were conducted weekly on days 1, 8, and 15 in cycles 1 and 2 and every 2 weeks thereafter. Physical examination, vital signs collection, performance status assessment, neurological exam, and coagulation level occurred at the start of every cycle. An ECG and chest X-ray were performed at baseline prior to starting treatment. Toxicities were assessed using NCI CTCAE version 4.03.

[2] = read-out: Maximum concentration (Cmax) of afatinib in plasma; single dose of 40 mg, patients with solid tumors; cited from earlier work
[3] = system: U87MG human glioblastoma cells; conditions: cited from earlier work
[4] = mouse, 30 mg/kg afatinib, CSF from the dura through the atlanto-occipital membrane; cited from earlier work

CN(C)C/C=C/C(=O)Nc1cc2c(Nc3ccc(F)c(Cl)c3)ncnc2cc1O[C@H]1CCOC1 [Afatinib]
Acute kidney injury: % of patients with treatment-related AE ([1]; human): 4.2% | Acute kidney injury: No. of patients with treatment-related AE ([1]; human): 1 | Amnesia: % of patients with treatment-related AE ([1]; human): 4.2% | Amnesia: No. of patients with treatment-related AE ([1]; human): 1 | Anorexia: % of patients with treatment-related AE ([1]; human): 25% | Anorexia: No. of patients with treatment-related AE ([1]; human): 6 | Bilateral blepharitis: % of patients with treatment-related AE ([1]; human): 4.2% | Bilateral blepharitis: No. of patients with treatment-related AE ([1]; human): 1 | Bilateral intermittent leg cramps: % of patients with treatment-related AE ([1]; human): 4.2% | Bilateral intermittent leg cramps: No. of patients with treatment-related AE ([1]; human): 1 | Blurred vision: % of patients with treatment-related AE ([1]; human): 4.2% | Blurred vision: No. of patients with treatment-related AE ([1]; human): 1 | Candida Intertrigo: % of patients with treatment-related AE ([1]; human): 4.2% | Candida Intertrigo: No. of patients with treatment-related AE ([1]; human): 1 | Confusion: % of patients with treatment-related AE ([1]; human): 8.3% | Confusion: No. of patients with treatment-related AE ([1]; human): 2 | Constipation: % of patients with treatment-related AE ([1]; human): 12.5% | Constipation: No. of patients with treatment-related AE ([1]; human): 3 | DVT: % of patients with treatment-related AE ([1]; human): 4.2% | DVT: No. of patients with treatment-related AE ([1]; human): 1 | Diarrhea: % of patients with treatment-related AE ([1]; human): 75% | Diarrhea: No. of patients with treatment-related AE ([1]; human): 18 | Dysgeusia: % of patients with treatment-related AE ([1]; human): 4.2% | Dysgeusia: No. of patients with treatment-related AE ([1]; human): 1 | Dyspepsia: % of patients with treatment-related AE ([1]; human): 4.2% | Dyspepsia: No. of patients with treatment-related AE ([1]; human): 1 | Dyspnea: % of patients with treatment-related AE ([1]; human): 4.2% | Dyspnea: No. of patients with treatment-related AE ([1]; human): 1 | Edema limbs: % of patients with treatment-related AE ([1]; human): 16.7% | Edema limbs: No. of patients with treatment-related AE ([1]; human): 4 | Fatigue: % of patients with treatment-related AE ([1]; human): 25% | Fatigue: No. of patients with treatment-related AE ([1]; human): 6 | Fever: % of patients with treatment-related AE ([1]; human): 8.3% | Fever: No. of patients with treatment-related AE ([1]; human): 2 | GERD: % of patients with treatment-related AE ([1]; human): 4.2% | GERD: No. of patients with treatment-related AE ([1]; human): 1 | Gait disturbance: % of patients with treatment-related AE ([1]; human): 4.2% | Gait disturbance: No. of patients with treatment-related AE ([1]; human): 1 | Gastroenteritis: % of patients with treatment-related AE ([1]; human): 4.2% | Gastroenteritis: No. of patients with treatment-related AE ([1]; human): 1 | Headache: % of patients with treatment-related AE ([1]; human): 4.2% | Headache: No. of patients with treatment-related AE ([1]; human): 1 | Hypokalemia: % of patients with treatment-related AE ([1]; human): 4.2% | Hypokalemia: No. of patients with treatment-related AE ([1]; human): 1 | Ingrown nail: % of patients with treatment-related AE ([1]; human): 4.2% | Ingrown nail: No. of patients with treatment-related AE ([1]; human): 1 | Insomnia: % of patients with treatment-related AE ([1]; human): 4.2% | Insomnia: No. of patients with treatment-related AE ([1]; human): 1 | Memory impairment: % of patients with treatment-related AE ([1]; human): 4.2% | Memory impairment: No. of patients with treatment-related AE ([1]; human): 1 | Metabolic acidosis: % of patients with treatment-related AE ([1]; human): 4.2% | Metabolic acidosis: No. of patients with treatment-related AE ([1]; human): 1 | Metabolic encephalopathy: % of patients with treatment-related AE ([1]; human): 4.2% | Metabolic encephalopathy: No. of patients with treatment-related AE ([1]; human): 1 | Nausea: % of patients with treatment-related AE ([1]; human): 37.5% | Nausea: No. of patients with treatment-related AE ([1]; human): 9 | Palmar-Plantar Erythrodysesthesia: % of patients with treatment-related AE ([1]; human): 4.2% | Palmar-Plantar Erythrodysesthesia: No. of patients with treatment-related AE ([1]; human): 1 | Paresthesia (lower extremities): % of patients with treatment-related AE ([1]; human): 4.2% | Paresthesia (lower extremities): No. of patients with treatment-related AE ([1]; human): 1 | Pruritus: % of patients with treatment-related AE ([1]; human): 16.7% | Pruritus: No. of patients with treatment-related AE ([1]; human): 4 | Rash acneiform: % of patients with treatment-related AE ([1]; human): 37.5% | Rash acneiform: No. of patients with treatment-related AE ([1]; human): 9 | Rash maculo-papular: % of patients with treatment-related AE ([1]; human): 20.8% | Rash maculo-papular: No. of patients with treatment-related AE ([1]; human): 6 | Rash: % of patients with treatment-related AE ([1]; human): 25% | Rash: No. of patients with treatment-related AE ([1]; human): 6 | Skin atrophy: % of patients with treatment-related AE ([1]; human): 4.2% | Skin atrophy: No. of patients with treatment-related AE ([1]; human): 1 | Skin ulceration: % of patients with treatment-related AE ([1]; human): 4.2% | Skin ulceration: No. of patients with treatment-related AE ([1]; human): 1 | Thrombocytopenia: % of patients with treatment-related AE ([1]; human): 4.2% | Thrombocytopenia: No. of patients with treatment-related AE ([1]; human): 1 | Vomiting: % of patients with treatment-related AE ([1]; human): 37.5% | Vomiting: No. of patients with treatment-related AE ([1]; human): 9 | Mucositis oral: % of patients with treatment-related AE ([1]; human, po): 20.8% | Mucositis oral: No. of patients with treatment-related AE ([1]; human, po): 5 | Recommended phase II dose ([1]; human, po): 280 mg | Thrush (oral): % of patients with treatment-related AE ([1]; human, po): 4.2% | Thrush (oral): No. of patients with treatment-related AE ([1]; human, po): 1 | Dose-limiting toxicities [1]: no dose-limiting toxicities | Cmax [2]: ~10 nM | Inhibitory concentration of 25% (IC25) [3]: approximately 2 μM | Time of peak concentration in CSF after dosing [4]: one
